From patent US20230226135A9, “ACETYLCHOLINE MODULATION OF IMMUNE FUNCTION” (BCell Solutions, Inc., priority 2019, published 2023)

Columns and labels:
splenic B cells [1] = test: alpha 7 nAChR expression on splenic B cells after TLR 9 agonist CpG (flow cytometry); type: cell-based, mouse; conditions: after CpG treatment
Experimental: Cell Culture. Mice were sacrificed and spleens were removed. The tissues were dissociated, from which single cell suspensions were made by passing the spleens through 40 μm cell strainers. Red blood cells were lysed using ACK Buffer (Sigma, Inc). Cells were then cultured with TLR ligands at the designated concentrations at 1.010^6 cells/mL in 6 well plates. Cells were grown in RPMI 1640 (Invitrogen) supplemented with 5% fetal bovine serum (Invitrogen) in a humidified 5% CO2 incubator at 37° C. for the designated time period.
Isolation of Splenic Cells. Splenocytes were isolated from 8 week old C57BL/6J mice. Following sacrifice, spleens were removed and splenocytes isolated as above. Cells were then resuspended in complete RPMI and were cultured with the TLR ligands at the designated concentrations at 10^6 cells/mL in 6 well plates. […]
Antibodies and Flow Cytometry. […] Following staining, cells were analyzed comparing each level of staining to the appropriate isotype control on a Beckman Coulter Cytoflex benchtop flow cytometer. Data was analyzed using FlowJo software (Tree Star Inc.).
In FIG. 1A the X-axis represents fluorescence intensity of MHC class II expression on untreated splenic B cells from a C57BL6 mouse. […] The X axis reflects the relative fluorescence intensity before (green histogram) and after treatment with the TLR 9 agonist CpG (blue histogram).

splenic B cells [2] = test: CFA-sensitized mice treated with Peptide with or without MLA, FACS of splenic B cells; type: in vivo
Experimental: SUMMARY: A study was conducted to evaluate a potential alpha7 nAChR anti-inflammatory mechanism of the MKR-4 peptide, using the alpha7 nAChR antagonist methyllycaconitine (MLA). After enrollment, animals in Groups 2-4 were sensitized ID at the base of the tail with 0.1 mL FCA on Day 1. On Days 2, 3, 5 & 7 Groups were then dosed intraperitoneally (IP) with either: peptide and MLA in combination (2 mg/kg and 6 mg/kg, respectively); peptide (2 mg/kg) and MLA vehicle (saline) in combination; or peptide vehicle (saline) and MLA vehicle (saline). Animals were dosed once on Study Day 2 (MLA or MLA vehicle), and Days 3, 5 & 7 (Peptide or Peptide vehicle, MLA or MLA vehicle) as described in Table 2 below. Body weights were recorded on Study Days 0 & 8. Mice were euthanized for necropsy on Study Day 8, and serum and whole spleens were collected from all animals and sent to the sponsor for internal FACS analysis. Toxicity and Peptide mechanistic evaluation was based on absolute body weight change, spleen weights and sponsor FACS analysis (not included in report).
Antibodies and Flow Cytometry. Single cell suspensions were made of tissues or cells harvested from culture and stained with the following monoclonal antibodies: a monoclonal antibody directed against mouse alpha 7 nicotinic acetylcholine receptor (alpha 7 nAChR) (Santa Cruz Biotechnology); anti-mouse MHC Class II (M5114), and anti-mouse CLIP 15G4, Santa Cruz. Following staining, cells were analyzed comparing each level of staining to the appropriate isotype control on a Beckman Coulter Cytoflex benchtop flow cytometer. Data was analyzed using FlowJo software (Tree Star Inc.).
Experimental Design: On Study Day 0, mice were weighed and randomized by body weight into treatment groups. Following randomization, on Study Day 1, Groups 2-4 were sensitized ID at the base of the tail with 0.1 mL of FCA. When MLA and Peptide (FRIMAVLAS (SEQ ID NO: 389))—or their vehicles—were dosed on the same day, the MLA antagonist or vehicle was dosed 1 hour before the Peptide or its vehicle.
On Study Day 8, mice were anesthetized with Isoflurane (VetOne, Cat #502017) and bled to exsanguination followed by cervical dislocation for necropsy and tissue collection.

[3] = Dosing formulation storage and stability; type: physicochemical; conditions: 0.6 mg/mL in saline, frozen at -20 C
Experimental: Test Article Formulation Instructions & Calculations: Peptide dosing solution (0.2 mg/mL) was made fresh daily within 1 hour of use by diluting 0.09 mL of 5 mg/mL DMSO stock into 2.11 mL sterile saline. DMSO stock was kept at 4 C, then refrozen (to avoid repeated freeze-thaw cycles). Still, stock was relatively “solid” even at 4 C.
MLA antagonist dosing solution (0.6 mg/mL) was made on Day 2 by diluting the entire 5 mg in the sealed vial with 8.3 mL of sterile saline and aliquoting out ˜1.1 mL in each of seven 2 mL cryovials and freezing at −20 C. Four vials were used in the experiment, each thawed within 1 hour of use. Three vials remain frozen.
Dosing Formulations and Vehicle Storage & Stability: Saline vehicle is stable at 4 C for months. Peptide dosing solutions were made up and used fresh daily. […] MLA frozen “stock” solutions were stable for up to 1 month.

CLIP+ B cells = test: CFA-induced arthritis model, CAP depletion of B cells with or without α7nAChR antagonist; type: in vivo, mice; conditions: co-treated with CAP, CFA model
Experimental: FIGS. 11A-11B. […] In this study, CAP was administered at 3 days after CFA, then once daily every 3 days, until day 10 after CFA.
The next series of experiments are focused on the effects of CAP on splenic immune cells. […] As part of this experiment, the mice were co-treated with CAP and the alpha-7 nicotinic acetylcholine receptor (α7nAChR) antagonist, methyllycaconitine (MCA).

CD8+ T cells = test: CAP-induced expansion of CD8+ T cells with or without α7nAChR antagonist; type: in vivo; conditions: with CAP
[4] = tested on: blood brain barrier (BBB); test: Intravital microscopy of BBB permeability and lymphocyte adhering/rolling in pial venules; type: in vivo, C57 BL/6J mice; conditions: P3C i.p., 24 hours
Description: Whether intranasal infection with Streptococcus pyogenes would induce blood-brain barrier permeability in C57 BL/6J mice by a TLR-dependent mechanism was examined. Immediately following craniotomy, mice were placed under an intravital microscope to study vascular permeability and leukocytes. Permeability of cerebral blood vessels was observed using FITC-dextran fluorescent dye and, tracing of leukocytes is observed by labeling such cells with Rhodamine-6G. Intranasal infection with Streptococcus pyogenes (gram positive) increased BBB permeability (FIG. 4) and the number of adherent or rolling lymphocytes (FIG. 4) within 24 hours post-infection, compared to saline treated controls.
Methods: To test the hypothesis that intranasal infection may increase BBB permeability, we exposed mice to GAS via intranasal infection with Streptococcus pyogenes (GAS). We assessed BBB permeability using intravital microscopy, and we characterized the immune response to GAS using flow cytometric analysis of nasal associated lymphoid tissue (NALT), spleen, and brain.
Intranasal infection: Isoflurane gas was employed to briefly anesthetize mice (1-2 minutes). Once anesthetized, 7.5 uL of streptococcal bacterial suspension (OD600=0.5-0.6) was placed on each nares (outer nostril) of mouse. Control mice received intranasal inoculation with vehicle (PBS). The droplets were inhaled into nasal sinuses. This small volume avoids inoculation of the lungs, but reproducibly results in colonization of nasal-associated lymphoid tissue (NALT, Park 2003; Wang 2010).
Intraperitoneal injection: The TLR 1/2 agonist, Pam-3-Cys (25 ug/mouse; Pam3CSK4, InvivoGen, San Diego Calif.) was intraperitoneally (right side) injected into mice 24 hours before intravital microscopy. P3C causes immune cell activation and polycolonal expansion of B-lymphocytes by Toll-Like receptor ligation (Newell 2010). Control mice received equal volume of vehicle (PBS) intraperitoneally.
MHC class II-targeted proprietary peptide (TPP, Elim Biopharmaceuticals Inc., Hayward Calif.; also see Newell 2010) was administered intraperitoneally (5 ug/mouse, left side), sometimes in conjunction with P3C (right side). TPP was dissolved in DMSO for a final concentration of 2.5% DMSO in PBS. Control mice received vehicle (2.5% DMSO in PBS) intraperitoneally.
Preparation of Mice: Mice were anesthetized with an (i.p.) injection of 50% urethane (Sigma-Aldrich, U2500) in PBS ([…]) and maintained on heating pad. Anesthetic plane was assessed throughout preparation and experiments, by response to toe pinch. If needed, urethane supplement was given at 10% of original dose volume. To prepare mice tails for intravenous (i.v.) dye injection we maintained anesthetized mice on a heating pad for 10-15 minutes, and then briskly wiped tails (toward tail-end) with 70% ethanol wipes to remove scales/hair and increase vasodilation. Immediately following tail wiping, Fluorescein dextran 10 kDa (10 mg/mL, Sigma-Aldrich, FD10S) was administered (2 uL/g mouse) via right lateral tail vein and, Rhodamine 6G (0.2 mg/mL, Sigma-Aldrich, 83697) was administered (1.6 uL/g mouse) via left lateral tail vein. When needed, tail was wiped multiple times to ensure clear visualization of tail veins. Following successful (i.v.) injection of dyes, mice underwent craniotomy.
Craniotomy: A craniotomy (removal of a small area of skull) was performed to expose the cerebrum and allow imaging of cerebral microvasculature (specifically pial vessels of pia mater). First, an incision across the midline of the scalp was made to expose the right parietal bone. The skull was then carefully marked with a waterproof marker, designating the area, 1 mm posterior from the Bregma and 4 mm lateral from the midline, to be removed (craniotomy diameter: 2.5 mm). Next, the craniotomy was performed with a drill ensuring the dura mater was not cut. […]

5′-tcgtcgttttgtcgttttgtcgtt-3′ [CpG]
relative level of expression of nAChR per cell (splenic B cells [1]): increases
total splenocytes that express alpha 7 nAChR (splenic B cells [1]; untreated 9%): 37.6%

CCN1C[C@]2(COC(=O)c3ccccc3N3C(=O)C[C@H](C)C3=O)CC[C@H](OC)[C@@]34[C@@H]5C[C@H]6[C@H](OC)[C@@H]5[C@](O)(C[C@@H]6OC)[C@@](O)([C@@H](OC)[C@H]23)[C@@H]14 [MLA, methyllycaconitine, reference compound]
effect of MLA on Peptide induced reduction in CLIP+ B cells (splenic B cells [2]; CFA treated mice, MLA 6 mg/kg IP 1 hour before Peptide): reversed
percentage of splenic B cells (splenic B cells [2]; CFA treated, Peptide treated (2 mg/kg) and treated with MLA (6 mg/kg IP)): 44.8%
stability of frozen stock solutions [3]: up to 1 month
effect of α7nAChR antagonist on CAP-induced decrease in B cell expansion (CLIP+ B cells): reversed
effect of α7nAChR antagonist on CAP-induced decrease in B cell expansion (CLIP+ B cells; listed as MCA): prevented
effect of α7nAChR antagonist on CAP-induced CD8+ T cell expansion (CD8+ T cells): reversed
effect of α7nAChR antagonist on CAP-induced CD8+ T cell expansion (CD8+ T cells; listed as MCA): blocked

Pam-3-Cys [P3C, reference compound]
largest observed diameter of adherent lymphocytes [4]: 15 um
number of rolling lymphocytes ([4]; vs control, p<0.01): significantly increased
number of adherent lymphocytes ([4]; vs control, p<0.05): significantly increased
average diameter of adherent lymphocytes ([4]; control 5 um): 10 um
